Assay results published in paper PMC6865181, “Role of L-Type Amino Acid Transporter 1 (LAT1) for the Selective Cytotoxicity of Sesamol in Human Melanoma Cells” (Molecules, 2019).
Where two headings read alike, the source gives them in different places. Marks after values point to notes of the source that are not given here.

Legend:
[1] = stated in the introduction without reference; cited from earlier work
Vero cells [2] = assay: Antiproliferative effect, neutral red uptake assay, Vero cells; format: cell-based, African green monkey; conditions: Vero cells, 24 h exposure, neutral red; read-out: IC50 (cell viability)
Experimental: (§1) The SK-MEL-2 and Vero cells (at 5 × 10^4 cells/well) were seeded separately into 96-well plates. After the cells were exposed to the tested compounds (200 µL) for 24 h, neutral red (50 µg/mL) (Sigma-Aldrich, St. Louis, MO, USA) was incorporated into the cells for 2 h. The cells were then washed with ice-cold PBS and lysed using 0.33% HCl in isopropanol. The absorbances of neutral red were measured at 540 nm with a reference wavelength of 660 nm using a UV-microplate reader (Perkin Elmer, Waltham, MA, USA). […] The selective index was calculated from the ratio of the IC50 of Vero and SK-MEL-2 cells.

Vero cells [3] = assay: Time-course of sesamol cellular uptake (distribution) in Vero cells; format: in vitro ADME, African green monkey
Experimental: (§2) The cells were used for the following experiments.
(§3) The cells were exposed to 1 mM (200 µL) sesamol and incubated at 37 °C at various times (0.5, 1, 3, 5, 10, and 15 min). The media was plated into 96-well plates prior to measuring the extracellular sesamol content by HPLC analysis. […] The sesamol content in 20 µL of cell lysate was quantified using HPLC assay as described in the analytical procedure.
(§4) The cellular uptake of sesamol was determined based on the sesamol content in cells (nmol/mg protein) to medium (nmol/µL) (expressed as C/M ratio, µL/mg protein). The linear regression of the C/M ratio from 0.5 to 3 min was performed (r^2 > 0.90); to give the initial distribution volume (µL/mg protein) from the y-intercept, and the initial uptake clearance (µL/min/mg protein) from the slope.

SK-MEL-2 cells [4] = assay: Time-course of sesamol cellular uptake (distribution) in SK-MEL-2 cells; format: in vitro ADME, human
Experimental: as §2, §3, §4

LAT1 [5] = assay: LAT1 function: competitive uptake of L-dopa in Vero cells; format: cell-based, African green monkey; conditions: L-dopa 0.1 mM, 10 min
Experimental: (§5) SK-MEL-2 and Vero cells were seeded separately into 24-well plates at 2 × 10^5 cells/well for 24 h. The media was removed, and the cells pre-incubated with HBSS pH 7.4 for 10 min. The cells were used for the following experiments.
(§6) Sesamol was also investigated for its affinity to LAT1. […] Competitive uptake was performed for 10 min then the cells were washed twice with ice-cold PBS. The L-dopa was solubilized by 0.1 M HCl and the cell lysate (25 µL) was pipetted for protein determination. […] Intracellular and extracellular L-dopa was quantified by the HPLC assay. The L-dopa uptake was represented as the distribution volume of L-dopa in a cell to media ratio (C/M ratio) as calculated in Section 4.3.1.
(§7) Quantitative analysis of sesamol and L-dopa were performed using a Shimadzu HPLC (LC-2030C-3D) with a UV photodiode array detector (DAD) (Kyoto, Japan). The analysis was based on a BDS Hypersil C-18 column, (4.6 × 250 mm, 5 µm packing, Thermo Fisher Scientific, Waltham, MA, USA). The column temperature was set at 30 °C with a flow rate of 0.8 mL/min. The mobile phase for sesamol quantification was 70% methanol in water, vs. 20% methanol in water for L-dopa. The respective detection wavelength and elution time for sesamol and L-dopa was 297 nm and 280 nm and 4.2 and 4.5 min. The validated sesamol quantification conducted using sesamol spiked cell lysate with high selectivity and clear separation from the endogenous cell lysate as previously reported. The % bias and % precision was determined within and between days, each was maintained below 6%.

LAT1 [6] = target: T1, LAT1 (Homo sapiens, UniProt Q01650); assay: LAT1 function: competitive uptake of L-dopa in SK-MEL-2 cells; format: cell-based; conditions: SK-MEL-2, L-dopa 0.1 mM, 10 min
T1 sequence (Q01650 whole entry): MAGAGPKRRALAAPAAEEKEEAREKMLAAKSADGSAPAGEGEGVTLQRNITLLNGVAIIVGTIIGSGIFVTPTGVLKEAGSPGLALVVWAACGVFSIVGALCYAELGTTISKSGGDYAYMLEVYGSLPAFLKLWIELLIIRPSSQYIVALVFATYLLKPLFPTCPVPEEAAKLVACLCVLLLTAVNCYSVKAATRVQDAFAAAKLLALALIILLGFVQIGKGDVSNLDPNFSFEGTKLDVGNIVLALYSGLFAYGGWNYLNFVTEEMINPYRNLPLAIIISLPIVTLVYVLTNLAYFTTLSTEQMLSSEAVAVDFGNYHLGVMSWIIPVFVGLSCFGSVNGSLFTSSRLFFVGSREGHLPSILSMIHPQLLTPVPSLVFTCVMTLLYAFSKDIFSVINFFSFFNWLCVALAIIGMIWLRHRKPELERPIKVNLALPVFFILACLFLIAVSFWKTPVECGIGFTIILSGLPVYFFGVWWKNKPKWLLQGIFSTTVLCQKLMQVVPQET
T1 sequence (P08195 102-630 partner): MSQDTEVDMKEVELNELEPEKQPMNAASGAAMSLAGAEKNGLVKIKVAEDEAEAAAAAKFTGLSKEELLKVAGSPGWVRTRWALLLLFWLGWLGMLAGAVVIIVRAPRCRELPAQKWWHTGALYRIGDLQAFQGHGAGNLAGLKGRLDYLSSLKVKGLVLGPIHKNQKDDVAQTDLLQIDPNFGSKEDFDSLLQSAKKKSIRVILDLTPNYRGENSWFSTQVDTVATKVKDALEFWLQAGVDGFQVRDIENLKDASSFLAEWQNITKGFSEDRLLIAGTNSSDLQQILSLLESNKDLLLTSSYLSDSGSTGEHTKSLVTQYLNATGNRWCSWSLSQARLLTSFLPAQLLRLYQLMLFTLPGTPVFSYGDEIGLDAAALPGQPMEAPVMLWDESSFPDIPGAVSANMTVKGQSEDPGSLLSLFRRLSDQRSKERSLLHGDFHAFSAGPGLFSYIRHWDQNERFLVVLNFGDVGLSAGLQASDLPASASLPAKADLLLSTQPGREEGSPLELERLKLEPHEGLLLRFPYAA
Experimental: as §5, §6
as §7, with “The” for “Quantitative analysis of sesamol and L-dopa were performed using a Shimadzu HPLC (LC-2030C-3D) with a UV photodiode array detector (DAD) (Kyoto, Japan). The”, “The respective detection wavelength and elution time for sesamol and L-dopa was 297 nm and 280 nm and 4.2 and 4.5 min.” left out

SK-MEL-2 cells [7] = assay: Uptake kinetics of sesamol at 37 °C and 4 °C in SK-MEL-2 cells; conditions: for Pd (sesamol passive diffusion) / Vmax (sesamol uptake) / Km: 1 min; for Km: read-out: Km (sesamol uptake)
Experimental: as §5
(§8) The cells were pre-incubated with HBSS pH 7.4 at 37 °C and at 4 °C both for 10 min. The cells were treated with sesamol (200 µL; range, 31.5 to 1,000 μM) and incubated under each condition for another 1 min, to exclude the influence of efflux or metabolism processes as per the previous report. The uptake process at 37 °C represented the total uptake of sesamol in the cells, including both carrier-mediated transport and passive transport; whereas the uptake process at 4 °C represented mainly passive transport.
(§9) The uptake kinetics was fitted using Michaelis-Menten kinetics (non-linear least square kinetics model) (r^2 > 0.90) Equation (1) that allowed estimation of Vmax, Km, and Pd values.
(§10) V = (Vmax × [S])/(Km + [S]) + Pd × [S](1)
(§11) V = uptake velocity at a certain amount of substrate (nmol/min/mg protein)
(§12) Vmax = maximum uptake velocity (nmol/min/mg protein)
(§13) [S] = concentration of sesamol at extracellular compartment (µM)
(§14) Km = concentration of sesamol at half of Vmax (µM)
(§15) Pd = passive lipoidal diffusion uptake rate (µL/min/mg protein)
(§16) The rate to reach total uptake clearance of carrier-mediated transport was obtained from the ratio of Vmax to Km (µL/min/mg protein). The total uptake clearance of the process (µL/min/mg protein) was obtained from (Vmax /Km) + Pd.

LAT1 [8] = conditions: Vero cells; sesamol 0.1 mM, uptake equilibrium 10 min
Experimental: as §5
(§17) Competitive inhibition of uptake of sesamol was done in both SK-MEL-2 and the Vero cells. […] The cells were washed twice with ice-cold PBS, solubilized in methanol, and centrifuged at 2400× g, at 4 °C for 20 min. The precipitated protein was re-solubilized by 0.1 M NaOH prior to protein determination. The sesamol content was quantified using HPLC assay. The cellular uptake of sesamol was calculated as per the C/M ratio.
as §7

SK-MEL-2 cells [9] = assay: Antiproliferative effect, neutral red uptake assay, SK-MEL-2 cells; format: cell-based, human
Experimental: as §1

LAT1 [10] = target: T1, LAT1; assay: cell-based; conditions: SK-MEL-2; sesamol 0.1 mM, uptake equilibrium 10 min
Experimental: as §5, §17, §7

Vero cells [11] = assay: Uptake kinetics of sesamol at 37 °C and 4 °C in Vero cells; conditions: for Pd (sesamol passive diffusion) / Vmax (sesamol uptake): 1 min
Experimental: as §5, §8, §9, §10, §11, §12, §13, §14, §15, §16

[12] = 1 mM sesamol, 37 °C, linear regression 0.5-3 min
[13] = competitor (BCH, L-tyrosine, sesamol 1 mM; L-leucine, L-alanine 2 mM; melphalan 0.05 mM)
[14] = competitor at the concentration printed in the row

## Oc1ccc2c(c1)OCO2 [Sesamol]
[1]
  logP: 1.29
Vero cells [2]
  IC50: 6.7 ± 0.2 mM
Vero cells [3]; [12]
  initial distribution volume: 5.7 ± 0.4 µL/mg protein
  initial uptake clearance: 1.3 ± 0.2 µL/min/mg protein
Vero cells [3]; 30 s
  reduction in sesamol distribution volume at 4 °C compared to 37 °C: 33%
Vero cells [3]; 37 °C
  time at which sesamol uptake reached a steady state: about 5 min
Vero cells [3]; 1 min
  reduction in sesamol distribution volume at 4 °C compared to 37 °C: 23%
SK-MEL-2 cells [4]; [12]
  initial distribution volume: 6.0 ± 0.4 µL/mg protein
  initial uptake clearance: 2.6 ± 0.1 µL/min/mg protein
SK-MEL-2 cells [4]; 30 s
  suppression of sesamol uptake at 4 °C compared to 37 °C: 45%
SK-MEL-2 cells [4]; 37 °C
  time at which sesamol uptake reached a steady state: approximately 10 min
SK-MEL-2 cells [4]; 1 min
  suppression of sesamol uptake at 4 °C compared to 37 °C: 61%
LAT1 [5]; [13]
  Percent Inhibition of L-Dopa Distribution Volume: 33%
LAT1 [5]; [14]
  L-Dopa Distribution Volume in presence of the compound: 103.9 ± 9.2 µL/mg Protein
LAT1 [6]; [13]
  Percent Inhibition of L-Dopa Distribution Volume: 44%
LAT1 [6]; [14]
  L-Dopa Distribution Volume in presence of the compound: 207.6 ± 31.5 µL/mg Protein
SK-MEL-2 cells [7]; 37 °C
  carrier-mediated uptake clearance in SK-MEL-2 cells relative to Vero cells: 3.4 fold
SK-MEL-2 cells [7]; SK-MEL-2, 4 °C
  Pd (sesamol passive diffusion): 2.7 ± 0.1^a µL/min/mg
  Vmax (sesamol uptake): 0.3 ± 0.1^b nmol/min/mg
  Km: 26.8 ± 9.8 µM
SK-MEL-2 cells [7]; SK-MEL-2, 37 °C
  Pd (passive diffusion of sesamol): 2.3 ± 0.2 µL/min/mg protein
  Vmax (carrier-mediated transport of sesamol): 4.2 ± 0.1 nmol/min/mg protein
  carrier-mediated transport as share of total uptake clearance: 89%
SK-MEL-2 cells [7]; SK-MEL-2, 37 °C, sesamol alone
  Pd (sesamol passive diffusion): 2.3 ± 0.2^b µL/min/mg
  Vmax (sesamol uptake): 4.2 ± 0.1^a nmol/min/mg
  Km: 225 ± 19.3 µM
LAT1 [8]
  Sesamol Distribution Volume, control (no competitor): 0% (17.9 ± 1.7)^a µL/mg Protein
SK-MEL-2 cells [9]
  Selective Index: 3.4
SK-MEL-2 cells [9]; SK-MEL-2, 24 h exposure, neutral red, read-out: IC50 (cell viability)
  IC50: 2 ± 0.1 mM
LAT1 [10]
  Sesamol Distribution Volume, control (no competitor): 0% (23.2 ± 2.1)^a µL/mg Protein
Vero cells [11]; 4 °C
  Pd (sesamol passive diffusion): 2.4 ± 0.3^a µL/min/mg
  Vmax (sesamol uptake): 0.4 ± 0.1^b nmol/min/mg
Vero cells [11]; 37 °C
  Pd (passive diffusion of sesamol): 2.1 ± 0.1 µL/min/mg protein
  Vmax (carrier-mediated transport of sesamol): 0.9 ± 0.0 nmol/min/mg protein
  carrier-mediated transport as share of total uptake clearance: 72%
Vero cells [11]; 37 °C, sesamol alone
  Pd (sesamol passive diffusion): 2.1 ± 0.1^a µL/min/mg
  Vmax (sesamol uptake): 0.9 ± 0.0^a nmol/min/mg
Vero cells [11]; read-out: Km (sesamol uptake), 4 °C, 1 min
  Km: 66.1 ± 20 µM
Vero cells [11]; read-out: Km (sesamol uptake), 37 °C, sesamol alone, 1 min
  Km: 160 ± 18.4 µM
